{"source": "ChEMBL document CHEMBL5723035", "about": "“Affinity Biochemical Literature for EUbOPEN Chemogenomic Library” (2024)", "key": {"[1]": {"biological_target": "T1, Lysine-specific demethylase 4A (Homo sapiens, UniProt O75164)", "T1 sequence (O75164 whole entry)": "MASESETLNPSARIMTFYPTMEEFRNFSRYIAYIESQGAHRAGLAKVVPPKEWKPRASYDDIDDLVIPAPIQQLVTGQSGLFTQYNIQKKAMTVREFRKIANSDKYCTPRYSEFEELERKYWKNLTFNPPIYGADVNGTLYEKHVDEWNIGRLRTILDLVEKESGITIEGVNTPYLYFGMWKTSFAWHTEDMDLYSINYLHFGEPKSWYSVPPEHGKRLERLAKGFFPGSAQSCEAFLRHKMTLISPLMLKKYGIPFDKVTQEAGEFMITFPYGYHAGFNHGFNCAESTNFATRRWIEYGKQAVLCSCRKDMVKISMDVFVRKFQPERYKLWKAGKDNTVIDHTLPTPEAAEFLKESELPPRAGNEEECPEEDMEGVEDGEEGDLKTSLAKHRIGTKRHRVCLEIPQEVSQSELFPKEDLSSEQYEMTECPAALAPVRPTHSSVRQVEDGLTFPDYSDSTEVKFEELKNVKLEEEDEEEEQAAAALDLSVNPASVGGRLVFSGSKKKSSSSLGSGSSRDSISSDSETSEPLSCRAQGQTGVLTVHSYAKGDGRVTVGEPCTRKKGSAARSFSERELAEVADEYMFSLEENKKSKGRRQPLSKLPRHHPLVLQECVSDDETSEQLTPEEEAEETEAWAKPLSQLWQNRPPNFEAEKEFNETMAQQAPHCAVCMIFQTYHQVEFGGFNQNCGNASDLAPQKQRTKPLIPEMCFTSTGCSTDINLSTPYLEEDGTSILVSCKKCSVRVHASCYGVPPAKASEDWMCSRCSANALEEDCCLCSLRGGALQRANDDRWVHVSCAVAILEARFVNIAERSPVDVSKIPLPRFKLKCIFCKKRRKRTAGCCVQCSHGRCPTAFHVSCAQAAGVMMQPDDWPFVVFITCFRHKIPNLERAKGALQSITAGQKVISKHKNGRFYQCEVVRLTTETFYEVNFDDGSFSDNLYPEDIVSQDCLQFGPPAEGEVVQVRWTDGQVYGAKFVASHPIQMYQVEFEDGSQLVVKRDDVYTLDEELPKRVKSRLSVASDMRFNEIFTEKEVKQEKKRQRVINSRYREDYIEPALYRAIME", "assay": "Affinity Biochemical interaction: (AlphaScreen) EUB0002543a KDM4A", "assay_type": "functional", "set-up": "mode of action Inhibitor, recommended concentration 1 uM"}, "[2]": {"biological_target": "T1, Lysine-specific demethylase 4A", "assay": "Affinity Biochemical interaction: (Biolayer interferometry) EUB0002543a KDM4A", "set-up": "mode of action Inhibitor, recommended concentration 1 uM"}, "[3]": {"biological_target": "Lysine-specific demethylase 4B (Homo sapiens, UniProt O94953)", "sequence (O94953 whole entry)": "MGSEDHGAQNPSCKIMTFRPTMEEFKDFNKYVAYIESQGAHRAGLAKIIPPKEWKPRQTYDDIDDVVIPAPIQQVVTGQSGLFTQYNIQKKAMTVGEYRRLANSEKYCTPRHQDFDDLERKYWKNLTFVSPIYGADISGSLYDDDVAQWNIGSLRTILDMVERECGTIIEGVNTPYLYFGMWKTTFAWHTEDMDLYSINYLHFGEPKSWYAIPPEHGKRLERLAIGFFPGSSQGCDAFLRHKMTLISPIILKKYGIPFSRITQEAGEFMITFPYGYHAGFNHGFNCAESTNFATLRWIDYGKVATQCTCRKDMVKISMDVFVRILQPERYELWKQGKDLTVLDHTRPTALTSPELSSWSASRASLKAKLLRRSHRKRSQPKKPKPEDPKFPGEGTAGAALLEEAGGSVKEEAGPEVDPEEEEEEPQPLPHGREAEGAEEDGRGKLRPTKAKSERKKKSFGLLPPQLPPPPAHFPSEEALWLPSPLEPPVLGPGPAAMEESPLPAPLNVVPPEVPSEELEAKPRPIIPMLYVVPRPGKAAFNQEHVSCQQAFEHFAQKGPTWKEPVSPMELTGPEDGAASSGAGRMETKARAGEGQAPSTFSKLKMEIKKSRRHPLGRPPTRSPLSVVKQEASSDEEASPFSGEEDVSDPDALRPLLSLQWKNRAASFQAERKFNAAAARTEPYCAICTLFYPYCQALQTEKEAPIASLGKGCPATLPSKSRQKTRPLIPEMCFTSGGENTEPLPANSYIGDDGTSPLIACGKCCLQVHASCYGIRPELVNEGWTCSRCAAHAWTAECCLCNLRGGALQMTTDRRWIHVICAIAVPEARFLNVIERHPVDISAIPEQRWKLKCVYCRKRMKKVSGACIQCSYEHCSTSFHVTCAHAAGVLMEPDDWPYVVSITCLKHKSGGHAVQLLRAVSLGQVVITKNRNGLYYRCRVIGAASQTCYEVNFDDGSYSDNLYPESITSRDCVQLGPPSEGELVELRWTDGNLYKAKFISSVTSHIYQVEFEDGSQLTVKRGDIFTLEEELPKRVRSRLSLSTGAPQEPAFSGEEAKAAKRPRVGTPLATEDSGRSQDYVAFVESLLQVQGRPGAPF", "assay": "Affinity Biochemical interaction: (AlphaScreen) EUB0002543a KDM4B", "assay_type": "functional", "set-up": "mode of action Inhibitor, recommended concentration 1 uM"}, "[4]": {"biological_target": "Lysine-specific demethylase 4C (Homo sapiens, UniProt Q9H3R0)", "sequence (Q9H3R0 whole entry)": "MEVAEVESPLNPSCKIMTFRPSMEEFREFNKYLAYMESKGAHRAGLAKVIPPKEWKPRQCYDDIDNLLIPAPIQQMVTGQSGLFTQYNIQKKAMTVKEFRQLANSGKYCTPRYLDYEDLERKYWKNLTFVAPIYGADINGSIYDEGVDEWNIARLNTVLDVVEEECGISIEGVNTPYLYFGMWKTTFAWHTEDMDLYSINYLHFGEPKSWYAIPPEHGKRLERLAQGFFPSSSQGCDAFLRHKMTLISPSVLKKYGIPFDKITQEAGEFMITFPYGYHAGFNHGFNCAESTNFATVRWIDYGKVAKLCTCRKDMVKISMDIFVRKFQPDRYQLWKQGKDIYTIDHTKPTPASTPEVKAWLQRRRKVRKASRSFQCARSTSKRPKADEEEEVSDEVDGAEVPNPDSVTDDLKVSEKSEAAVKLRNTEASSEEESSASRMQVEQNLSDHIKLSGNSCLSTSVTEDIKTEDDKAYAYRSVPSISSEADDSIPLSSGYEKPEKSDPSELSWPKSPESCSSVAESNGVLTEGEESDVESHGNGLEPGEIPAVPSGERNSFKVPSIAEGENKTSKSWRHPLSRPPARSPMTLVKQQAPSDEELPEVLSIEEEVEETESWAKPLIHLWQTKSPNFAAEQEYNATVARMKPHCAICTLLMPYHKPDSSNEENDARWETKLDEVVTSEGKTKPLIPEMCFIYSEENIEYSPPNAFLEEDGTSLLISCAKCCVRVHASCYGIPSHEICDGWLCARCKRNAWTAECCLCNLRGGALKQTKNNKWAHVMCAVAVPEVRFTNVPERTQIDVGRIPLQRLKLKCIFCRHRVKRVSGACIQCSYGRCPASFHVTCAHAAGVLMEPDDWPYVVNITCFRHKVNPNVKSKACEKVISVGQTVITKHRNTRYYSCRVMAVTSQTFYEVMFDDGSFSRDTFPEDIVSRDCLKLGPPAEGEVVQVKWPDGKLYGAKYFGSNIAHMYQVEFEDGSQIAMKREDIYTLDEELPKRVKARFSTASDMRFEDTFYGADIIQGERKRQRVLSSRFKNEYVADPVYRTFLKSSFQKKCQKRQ", "assay": "Affinity Biochemical interaction: (AlphaScreen) EUB0002543a KDM4C", "assay_type": "functional", "set-up": "mode of action Inhibitor, recommended concentration 1 uM"}, "[5]": {"biological_target": "T2, Equilibrative nucleoside transporter 1 (Homo sapiens, UniProt Q99808)", "T2 sequence (Q99808 whole entry)": "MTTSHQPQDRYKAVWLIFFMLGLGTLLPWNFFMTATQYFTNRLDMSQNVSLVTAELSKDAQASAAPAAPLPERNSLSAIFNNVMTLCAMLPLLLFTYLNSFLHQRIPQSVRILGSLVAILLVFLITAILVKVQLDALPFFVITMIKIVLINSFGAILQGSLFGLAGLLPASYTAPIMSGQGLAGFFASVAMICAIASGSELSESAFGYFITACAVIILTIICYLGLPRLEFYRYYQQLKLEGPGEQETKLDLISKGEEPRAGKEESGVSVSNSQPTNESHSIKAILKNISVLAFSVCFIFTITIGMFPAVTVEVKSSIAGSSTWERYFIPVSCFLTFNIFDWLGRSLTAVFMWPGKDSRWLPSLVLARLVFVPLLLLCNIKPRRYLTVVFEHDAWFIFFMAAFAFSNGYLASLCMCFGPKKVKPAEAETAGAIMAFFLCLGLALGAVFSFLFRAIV", "assay": "Affinity Biochemical interaction: (inhibition of [3H]nitrobenzylthioinosine binding to SLC29A1 in membranes) EUB0002560a SLC29A1", "assay_type": "cell membranes", "set-up": "mode of action Inhibitor, recommended concentration 1 uM"}, "[6]": {"biological_target": "T2, Equilibrative nucleoside transporter 1", "assay": "Affinity Biochemical interaction: (radioligand binding assay, inhibition of [3H]S-(4-Nitrobenzyl)-6-thioinosine binding to target) EUB0002560a SLC29A1", "set-up": "mode of action Inhibitor, recommended concentration 1 uM"}, "[7]": {"biological_target": "Procathepsin L (Homo sapiens, UniProt P07711)", "sequence (P07711 whole entry)": "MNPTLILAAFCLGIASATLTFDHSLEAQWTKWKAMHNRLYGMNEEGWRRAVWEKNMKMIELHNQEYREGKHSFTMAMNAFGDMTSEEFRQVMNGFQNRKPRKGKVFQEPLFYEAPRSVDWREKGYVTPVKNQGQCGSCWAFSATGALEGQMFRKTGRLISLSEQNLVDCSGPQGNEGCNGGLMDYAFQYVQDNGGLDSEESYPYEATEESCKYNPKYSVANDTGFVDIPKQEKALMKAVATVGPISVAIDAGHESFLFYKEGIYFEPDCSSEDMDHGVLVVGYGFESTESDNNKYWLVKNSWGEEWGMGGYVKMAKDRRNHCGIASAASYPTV", "assay": "Affinity Biochemical interaction: (enzymatic assay (fluorogenic substrate cleavage)) EUB0002529a CTSL", "assay_type": "functional", "set-up": "mode of action Inhibitor, recommended concentration 1 uM"}, "[8]": {"biological_target": "3',5'-cyclic-AMP phosphodiesterase 4A (Homo sapiens, UniProt P27815)", "assay": "Affinity Biochemical interaction: (fluorescence polarisation assay, inhibition of enzyme activity) EUB0002577a PDE4A", "assay_type": "functional", "set-up": "mode of action Inhibitor, recommended concentration 1 uM"}, "[9]": {"biological_target": "3',5'-cyclic-AMP phosphodiesterase 4C (Homo sapiens, UniProt Q08493)", "sequence (Q08493 whole entry)": "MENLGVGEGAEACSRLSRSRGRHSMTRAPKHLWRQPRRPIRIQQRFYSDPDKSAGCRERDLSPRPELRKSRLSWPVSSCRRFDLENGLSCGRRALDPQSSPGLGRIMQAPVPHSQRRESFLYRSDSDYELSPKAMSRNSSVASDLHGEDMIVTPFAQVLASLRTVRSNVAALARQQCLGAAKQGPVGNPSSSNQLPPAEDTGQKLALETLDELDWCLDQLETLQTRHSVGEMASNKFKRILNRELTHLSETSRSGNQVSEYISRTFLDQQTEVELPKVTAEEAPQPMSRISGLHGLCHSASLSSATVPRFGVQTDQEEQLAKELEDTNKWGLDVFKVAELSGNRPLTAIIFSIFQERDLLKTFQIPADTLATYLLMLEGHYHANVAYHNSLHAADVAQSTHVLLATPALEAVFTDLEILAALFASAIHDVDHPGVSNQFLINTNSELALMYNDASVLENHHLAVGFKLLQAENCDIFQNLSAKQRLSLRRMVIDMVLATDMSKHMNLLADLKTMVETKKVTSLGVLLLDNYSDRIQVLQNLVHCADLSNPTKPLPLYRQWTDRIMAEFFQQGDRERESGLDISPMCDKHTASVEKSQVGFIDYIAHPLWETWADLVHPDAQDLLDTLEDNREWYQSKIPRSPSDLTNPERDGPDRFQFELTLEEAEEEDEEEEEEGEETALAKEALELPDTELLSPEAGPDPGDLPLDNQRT", "assay": "Affinity Biochemical interaction: (fluorescence polarisation assay, inhibition of enzyme activity) EUB0002577a PDE4C", "assay_type": "functional", "set-up": "mode of action Inhibitor, recommended concentration 1 uM"}, "[10]": {"biological_target": "cAMP and cAMP-inhibited cGMP 3',5'-cyclic phosphodiesterase 10A (Homo sapiens, UniProt Q9Y233)", "assay": "Affinity Biochemical interaction: (inhibition of enzyme activity in cleaving radiolabelled substrate [3H]cAMP) EUB0002682aCl PDE10A", "assay_type": "functional", "set-up": "mode of action Inhibitor, recommended concentration 1 uM"}, "[11]": {"biological_target": "3',5'-cyclic-AMP phosphodiesterase 4D (Homo sapiens, UniProt Q08499)", "assay": "Affinity Biochemical interaction: ([…]) EUB0002544a PDE4D", "assay_type": "cell-free", "set-up": "mode of action Inhibitor, recommended concentration 1 uM"}, "[12]": {"biological_target": "3',5'-cyclic-AMP phosphodiesterase 4B (Homo sapiens, UniProt Q07343)", "assay": "Affinity Biochemical interaction: (Inhibition of enzyme activity, scintillation proximity assay with radiolabelled [3H]cAMP) EUB0002694a PDE4B", "assay_type": "functional", "set-up": "mode of action Inhibitor, recommended concentration 1 uM"}, "[13]": {"biological_target": "Alpha-ketoglutarate-dependent dioxygenase alkB homolog 3 (Homo sapiens, UniProt Q96Q83)", "sequence (Q96Q83 whole entry)": "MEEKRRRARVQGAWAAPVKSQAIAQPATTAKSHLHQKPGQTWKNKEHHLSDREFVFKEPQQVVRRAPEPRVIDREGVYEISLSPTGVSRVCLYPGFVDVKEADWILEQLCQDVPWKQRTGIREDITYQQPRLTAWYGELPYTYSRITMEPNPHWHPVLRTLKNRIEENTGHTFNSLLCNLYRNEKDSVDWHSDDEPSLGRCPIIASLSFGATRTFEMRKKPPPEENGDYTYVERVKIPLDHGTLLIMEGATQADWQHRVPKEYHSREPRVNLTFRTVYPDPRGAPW"}, "[14]": {"biological_target": "NAD-dependent protein deacetylase sirtuin-7 (Homo sapiens, UniProt Q9NRC8)", "assay": "Affinity Biochemical interaction: (inhibition of deacetylase activity, luminescence measurement using the SIRT7 assay kit) EUB0002717a SIRT7", "assay_type": "functional", "set-up": "mode of action Inhibitor, recommended concentration 1 uM"}, "[15]": {"biological_target": "Ubiquitin carboxyl-terminal hydrolase 14 (Homo sapiens, UniProt P54578)"}, "[16]": {"biological_target": "Acid ceramidase (Homo sapiens, UniProt Q13510)", "assay": "Affinity Biochemical interaction: (inhibition of substrate hydrolysis determined through mass spectrometry) EUB0002527a ASAH1", "assay_type": "functional", "set-up": "mode of action Inhibitor, recommended concentration 1 uM"}, "[17]": {"biological_target": "Protein-arginine deiminase type-4 (Homo sapiens, UniProt Q9UM07)", "assay": "Affinity Biochemical interaction: (enzyme inhibition, detection of citrullated histone H3 by either immunoblot with LiC or quantitation or an ELISA-based assay using anti-citrullated histone H3 rabbit polyclonal antibody) EUB0002517a PADI4", "assay_type": "functional", "set-up": "mode of action Inhibitor, recommended concentration 1 uM"}, "[18]": {"biological_target": "Adenosine kinase (Homo sapiens, UniProt P55263)", "assay": "Affinity Biochemical interaction: (radiochemical assay, inhibition of AK activity in cell supernatants) EUB0002485aCl ADK", "assay_type": "functional, subcellular", "set-up": "mode of action Inhibitor, recommended concentration 1 uM"}}}
{"molecule": "CC(C)[C@@H]1NC(=O)[C@H](Cc2ccc(O)cc2)NC(=O)[C@@H](CC(=O)O)NC(=O)S[C@@H](C(=O)O)NC(=O)[C@H]([C@H](C)O)NC(=O)[C@H](Cc2ccc(O)cc2)NC(=O)[C@H](Cc2c[nH]c3ccccc23)NC(=O)[C@H](CCCNC(=N)N)NC(=O)[C@H](Cc2c[nH]c3ccccc23)NC(=O)[C@H](C)NC(=O)[C@H](CO)NC(=O)[C@H](CCCNC(=N)N)NC(=O)[C@H]([C@H](C)O)NC(=O)[C@H](CC(N)=O)NC(=O)[C@H](Cc2ccc(O)cc2)NC1=O", "values": [{"measurement": "IC50", "setting": "[1]", "result": 42, "unit": "nM"}, {"measurement": "Kd", "setting": "[2]", "result": 29.8, "unit": "nM"}, {"measurement": "IC50", "setting": "[3]", "result": 33, "unit": "nM"}, {"measurement": "IC50", "setting": "[4]", "result": 39, "unit": "nM"}]}
{"molecule": "NC(=O)C1CN(CCCCC(c2ccc(F)cc2)c2ccc(F)cc2)CCN1CC(=O)Nc1c(Cl)cc(N)cc1Cl", "note": "(stereo not drawn) [DRAFLAZINE]", "values": [{"measurement": "Ki", "setting": "[5]", "result": 0.28, "unit": "nM"}, {"measurement": "Ki", "setting": "[6]", "result": 0.94, "unit": "nM"}]}
{"molecule": "Cn1nc(C(C)(C)C)cc1C(=O)NC(Cc1cccc(Cl)c1)C(=O)NCC#N", "note": "(stereo not drawn)", "values": [{"measurement": "Ki", "setting": "[7]", "result": 82, "unit": "nM"}]}
{"molecule": "CC(C)NC(=O)c1ccc(OC(F)F)c(OCC2CC2)c1", "values": [{"measurement": "IC50", "setting": "[8]", "result": 113, "unit": "nM"}, {"measurement": "IC50", "setting": "[9]", "result": 164, "unit": "nM"}]}
{"molecule": "Cc1ccc2c(c1)nc(/C=C/c1cccc3cccnc13)n2-c1cccc(OCCCN2CCN(C)CC2)c1", "values": [{"measurement": "IC50", "setting": "[10]", "result": 2.8, "unit": "nM"}]}
{"molecule": "C[C@@H](Oc1ccc(CNC(=O)c2cccnc2Oc2ccc3c(c2)OCO3)c(F)c1)C(=O)O", "values": [{"measurement": "IC50", "setting": "[11]", "result": 37, "unit": "nM"}]}
{"molecule": "N#Cc1ccc(-c2c3n(c4cccnc24)CCN(C2CC2)C3=O)cc1F", "note": "[PF-06445974]", "values": [{"measurement": "IC50", "setting": "[12]", "result": "< 1", "unit": "nM"}]}
{"molecule": "Cc1ccc2[nH]c(-n3nc(C)c(Cc4ccccc4)c3O)nc2c1", "values": [{"measurement": "IC50", "setting": "[13]", "result": 670, "unit": "nM"}]}
{"molecule": "Nc1cccc(Nc2ncc(-c3ccc(Cl)cc3)o2)c1", "values": [{"measurement": "IC50", "setting": "[14]", "result": 325, "unit": "nM"}]}
{"molecule": "Cc1cc(C(=O)CN2CCCCC2)c(C)n1-c1ccc(Cl)cc1", "values": [{"measurement": "IC50", "setting": "[15]", "result": 600, "unit": "nM"}]}
{"molecule": "CCCCCCNC(=O)n1cc(F)c(=O)[nH]c1=O", "note": "[CARMOFUR]", "values": [{"measurement": "IC50", "setting": "[16]", "result": 29, "unit": "nM"}]}
{"molecule": "COc1cc(C(=O)N2C[C@H](N)CC[C@@H]2C)cc2nc(-c3cc4cccnc4n3CC3CC3)n(C)c12", "values": [{"measurement": "IC50", "setting": "[17]", "result": 98, "unit": "nM"}]}
{"molecule": "Nc1ncnc2nc(-c3ccc(N4CCOCC4)nc3)cc(-c3cccc(Br)c3)c12", "values": [{"measurement": "IC50", "setting": "[18]", "result": 3, "unit": "nM"}]}
